These molecules were tested against T1, VLA-4 (Homo sapiens, UniProt P05556+P13612) (assay: VLA-4 direct binding assay (VCAM-IgG alkaline phosphatase conjugate binding to Jurkat cells)). Details: Table 1, Structure-Activity; assay and unit inferred; read-out: Act.
T1 construct: endogenous in cells; host or cells: Jurkat cells
Text: A direct binding assay may also be employed to quantitate the inhibitory activity of the compounds of this invention. (“DBA”) In direct binding assays, for example, a VCAM-IgG fusion protein containing the first two immunoglobulin domains of VCAM (D1D2) attached above the hinge region of an IgG1 molecule (“VCAM 2D-IgG”), is conjugated to a marker enzyme, such as alkaline phosphatase (“AP”). The synthesis of this VCAM-IgG fusion is described in PCT publication WO 90/13300, the disclosure of which is herein incorporated by reference. The conjugation of that fusion to a marker enzyme can be achieved by cross-linking methods well-known in the art.
The VCAM-IgG enzyme conjugate is then placed in the wells of a multi-well filtration plate, such as that contained in the Millipore Multiscreen Assay System (Millipore Corp., Bedford, Mass.). Varying concentrations of the test inhibitory compound are then added to the wells followed by addition of VLA-4-expressing cells. The cells, compound and VCAM-IgG enzyme conjugate are mixed together and allowed to incubate at room temperature.
Following incubation, the wells are vacuum drained, leaving behind the cells and any bound VCAM. Quantitation of bound VCAM is determined by adding an appropriate calorimetric substrate for the enzyme conjugated to VCAM-IgG and determining the amount of reaction product. Decreased reaction product indicates increased binding inhibitory activity. The protocol is described more specifically below:
1. Block a 96 well Millipore Multiscreen Assay System filtration plate^1 with 200:l/well of blocking buffer (1×Phosphate Buffered Saline, 0.1%Tween 20, 1%BSA) for at least 1 hour at room temperature.
2. Drain the plate with the vacuum manifold, and wash with 200 μl/well of assay buffer (Tris Buffered Saline, 0.1% BSA, 2 mM glucose, 10 mM HEPES, pH 7.5) draining the plate in between. Repeat twice. Then blot the plate bottom on paper to remove excess buffer.
3. Prepare a 4 μg/ml VCAMIg-AP solution (Alkaline phosphatase coupled to VCAMIg) in assay buffer and filter with a 0.2:low protein binding syringe filter (Gelman Sciences #4454). From this stock, prepare a 0.4 μg/ml working solution of VCAMIg-AP in assay buffer. Add 25:l of 0.4 μg/ml VCAMIg-AP to every well.
5. Prepare dilutions of compounds to be tested in assay buffer. Concentrations should be 4× the desired final concentration and run in triplicate. Add 25 μl of the compound dilutions to designated wells.
7. Jurkat cells are centrifuged to remove cell culture media and washed once in assay buffer. Resuspend the washed Jurkat cells to a concentration of 8×10^6/ml in assay buffer containing 2 mM MnCl2. Pipeting the mixture up and down to ensure a uniform cell suspension. Add 50:l of cell suspension to each well except the NSB wells.
8. Gently tap the sides of the plate to mix well contents. Incubate the plate for 60 minutes at room temperature (RT).
9. Place the plate on the vacuum manifold to drain the well contents. Wash twice with 100 μl/well of wash buffer (assay buffer containing 1 mM MnCl2). Drain the plate and blot on paper towels.
10. Add 10 mg/ml of 4-Nitro phenyl phosphate to Substrate buffer (0.1M glycine, 1 mM ZnCl2, 1 mM MgCl2, pH 10.5). Add 100 μl/well and incubate for exactly 30 minutes at RT.
11. To stop the reaction, add 100 μl/well of 3N NaOH.
12. Read the 96-well plate in a Molecular Devices ELISA platereader at 405 nm. Analyze data with SoftMax software.

T1 sequence (P13612 34-1032): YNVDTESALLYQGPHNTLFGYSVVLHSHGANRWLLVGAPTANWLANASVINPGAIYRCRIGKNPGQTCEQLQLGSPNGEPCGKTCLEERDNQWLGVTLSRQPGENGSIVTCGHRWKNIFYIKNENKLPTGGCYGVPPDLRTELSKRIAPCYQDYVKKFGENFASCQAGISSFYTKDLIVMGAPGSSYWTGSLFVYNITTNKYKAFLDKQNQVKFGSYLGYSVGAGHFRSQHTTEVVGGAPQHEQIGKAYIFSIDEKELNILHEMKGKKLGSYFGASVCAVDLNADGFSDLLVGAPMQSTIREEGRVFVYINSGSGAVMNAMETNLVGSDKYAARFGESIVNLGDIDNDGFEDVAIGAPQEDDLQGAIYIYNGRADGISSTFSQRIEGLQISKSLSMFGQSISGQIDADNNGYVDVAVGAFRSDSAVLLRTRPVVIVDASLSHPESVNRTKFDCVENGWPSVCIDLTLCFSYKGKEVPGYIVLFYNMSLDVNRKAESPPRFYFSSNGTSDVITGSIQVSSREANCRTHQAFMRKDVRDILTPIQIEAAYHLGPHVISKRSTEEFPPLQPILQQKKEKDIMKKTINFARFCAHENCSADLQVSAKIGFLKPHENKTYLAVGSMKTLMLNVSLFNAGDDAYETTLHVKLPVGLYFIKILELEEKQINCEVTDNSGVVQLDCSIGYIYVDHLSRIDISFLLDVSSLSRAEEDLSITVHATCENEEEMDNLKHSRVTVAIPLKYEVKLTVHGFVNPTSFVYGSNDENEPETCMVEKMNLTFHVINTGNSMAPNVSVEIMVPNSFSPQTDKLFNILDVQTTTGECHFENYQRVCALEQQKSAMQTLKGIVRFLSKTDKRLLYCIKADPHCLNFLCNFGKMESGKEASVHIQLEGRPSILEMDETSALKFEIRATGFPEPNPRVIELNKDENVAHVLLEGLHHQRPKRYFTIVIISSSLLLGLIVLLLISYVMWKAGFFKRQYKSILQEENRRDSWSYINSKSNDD
T1 sequence (P05556 21-798): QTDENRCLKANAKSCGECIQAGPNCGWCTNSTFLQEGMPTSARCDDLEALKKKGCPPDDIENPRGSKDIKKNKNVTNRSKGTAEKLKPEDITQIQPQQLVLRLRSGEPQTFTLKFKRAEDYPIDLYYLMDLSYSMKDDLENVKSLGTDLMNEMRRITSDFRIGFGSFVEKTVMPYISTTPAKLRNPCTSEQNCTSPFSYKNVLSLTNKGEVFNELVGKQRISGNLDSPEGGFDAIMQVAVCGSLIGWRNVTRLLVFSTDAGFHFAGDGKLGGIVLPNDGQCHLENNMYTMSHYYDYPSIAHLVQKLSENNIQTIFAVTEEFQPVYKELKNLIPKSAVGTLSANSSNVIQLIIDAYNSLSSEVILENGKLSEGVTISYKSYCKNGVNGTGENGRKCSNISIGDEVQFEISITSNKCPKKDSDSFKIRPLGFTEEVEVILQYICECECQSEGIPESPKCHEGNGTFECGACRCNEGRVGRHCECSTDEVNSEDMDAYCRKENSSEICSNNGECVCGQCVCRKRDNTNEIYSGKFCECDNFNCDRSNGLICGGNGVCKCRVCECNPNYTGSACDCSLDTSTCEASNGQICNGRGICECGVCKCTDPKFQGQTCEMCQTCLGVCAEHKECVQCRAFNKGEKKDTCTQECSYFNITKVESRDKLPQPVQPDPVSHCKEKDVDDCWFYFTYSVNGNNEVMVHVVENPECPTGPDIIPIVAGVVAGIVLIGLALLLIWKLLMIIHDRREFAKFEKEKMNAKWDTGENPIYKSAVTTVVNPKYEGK

SMILES | IC50
CC(C)CCN(CC(=O)Nc1ccc(NC(=O)Nc2ccccc2)cc1)C(=O)CN(CCC(=O)O)C(=O)c1ccccc1 [AX33] | 95 nM
Cc1ccccc1NC(=O)Nc1ccc(CC(=O)Nc2ccc3c(c2)C(=O)N(CCC(=O)O)CC(=O)N3CCc2ccccc2)cc1 [BX52] | 132 nM
O=C(O)CCNC(=O)[C@@H]1CCCN(C(=O)Cc2ccc(NC(=O)Nc3ccccc3)cc2)C1 [MX1] | 872 nM
Cc1ccccc1NC(=O)Nc1ccc(NC(=O)C2CC2C(=O)N[C@@H](CC(=O)O)c2ccc3c(c2)OCO3)cc1 (stereo partly shown) [SX25] | 810 nM
Cc1ccccc1NC(=O)Nc1ccc(NC(=O)[C@@H]2CCCN2C(=O)CC[C@@H](C)CC(=O)O)cc1 [CX9] | 332 nM
Cc1ccccc1NC(=O)Nc1ccc(N2CC[C@@H](CC(=O)N[C@H](C)CC(=O)O)C2=O)cc1 [SX26] | 769 nM
COc1ccc([C@H](CC(=O)O)NC(=O)C(CC(=O)Nc2ccc(COCc3ccccc3)cc2)CC(C)C)cc1OC (stereo partly shown) [SX29] | 700 nM
CN1C(=O)CN(CCC(=O)O)C(=O)c2cc(NC(=O)Cc3ccc(NC(=O)c4c[nH]c5ccccc45)cc3)ccc21 [BX64] | 24 nM
Cc1ccccc1NC(=O)Nc1ccc(CC(=O)Nc2cccc(CN(CCC(=O)O)C(=O)c3ccccc3)c2)cc1 [RX18] | 350 nM
COc1ccc([C@H](CC(=O)O)NC(=O)C(CC(=O)Nc2ccc(C(N)=O)cc2)CC(C)C)cc1OC (stereo partly shown) [SX15] | 3000 nM
Cc1ccccc1NC(=O)Nc1ccc(NC(=O)C2CCCN2C(=O)CCCCC(=O)O)cc1 (stereo not shown) [CX1] | 1350 nM
CN1C(=O)CN(CCC(=O)O)C(=O)c2cc(NC(=O)Cc3ccc(NC(=O)Cc4c[nH]c5ccccc45)cc3)ccc21 [BX11] | 9050 nM
Cc1ccccc1NC(=O)Nc1ccc(CC(=O)Nc2ccc3c(c2)C(=O)N(CCC(=O)O)CC(=O)N3C)cc1 [BX44] | 257 nM
CC(CC(=O)Nc1ccc(NC(=O)Nc2ccccc2)cc1)C(=O)N[C@H](C)CC(=O)O (stereo partly shown) [SX43] | 247 nM
Cc1ccccc1NC(=O)Nc1ccc(CC(=O)Nc2ccc3c(c2)C(=O)N(CCC(=O)O)C(C)C(=O)N3C)cc1 (stereo not shown) [BX38] | 550 nM
Cc1ccccc1NC(=O)Nc1ccc(CNC(=O)c2ccc3c(c2)CN(C)C(=O)C(CC(=O)O)N3)cc1 (stereo not shown) [BX18] | 4430 nM
Cc1ccccc1NC(=O)Nc1ccc(NC(=O)CN(CCC(C)C)C(=O)CN(CCC(=O)O)C(=O)CN2CCOCC2)cc1 [AX42] | 52 nM
Cc1ccccc1NC(=O)Nc1ccc(CC(=O)Nc2cccc(OCCCCC(=O)O)c2)cc1 [RX4] | 4460 nM
Cc1ccccc1NC(=O)Nc1ccc(NC(=O)c2ccc3c(c2)NC(CC(=O)O)C(=O)N(C)C3)cc1 (stereo not shown) [BX36] | 646 nM
Cc1ccccc1NC(=O)Nc1ccc(NC(=O)Cc2ccc3c(c2)C(=O)N(CCC(=O)O)CC(=O)N3C)cc1 [BX33] | 886 nM

SMILES | IC50
CC(C)CN(CC(=O)Nc1ccc(NC(=O)Nc2ccccc2)cc1)C(=O)CN(CCC(=O)O)C(=O)c1ccccc1 [AX28] | 150 nM
COc1ccc(C(CC(=O)O)NC(=O)C(CC(=O)Nc2ccc(NC(=O)Nc3ccccc3)cc2)CC(C)C)cc1 (stereo not shown) [SX23] | 1330 nM
Cc1ccccc1NC(=O)Nc1ccc(NC(=O)CN(CCC(C)C)C(=O)CN(CCC(=O)O)C(=O)COc2ccccc2)cc1 [AX25] | 246 nM
COc1ccc(C(CC(=O)O)NC(=O)C(CC(=O)Nc2ccc(CCSc3ccccc3C)cc2)CC(C)C)cc1OC (stereo not shown) [SX32] | 660 nM
COc1ccc([C@H](CC(=O)O)NC(=O)C(CC(=O)Nc2ccc(NC(=O)NS(=O)(=O)c3ccccc3C)cc2)CC(C)C)cc1OC (stereo partly shown) [SX42] | 298 nM
CCC(CC(=O)O)N1CC(=O)N(C)c2ccc(NC(=O)Cc3ccc(NC(=O)Nc4ccccc4C)cc3)cc2C1=O (stereo not shown) [BX60] | 103 nM
CCOC(=O)CCN1CC(=O)N(CCC(=O)O)Cc2cc(NC(=O)Cc3ccc(NC(=O)Nc4ccccc4C)cc3)ccc21 [BX72] | 12.5 nM
CCC(C)N1C(=O)CN(CCC(=O)O)C(=O)c2cc(NC(=O)Cc3ccc(NC(=O)Nc4ccccc4C)cc3)ccc21 (stereo not shown) [BX49] | 163 nM
COc1ccc(C(CC(=O)O)NC(=O)C(CC(=O)NCc2ccccc2)CC(C)C)cc1 (stereo not shown) [SX6] | 6750 nM
Cc1ccccc1NC(=O)Nc1ccc(NC(=O)CN(CCC(C)C)C(=O)CN(CCC(=O)O)C(=O)COc2ccccc2)cc1 [AX34] | 92 nM
Cc1ccccc1NC(=O)Nc1ccc(NC(=O)CCC(=O)N[C@H](C)CC(=O)O)cc1 [SX35] | 468 nM
Cc1ccccc1NC(=O)Nc1ccc(NC(=O)CN(CCC(C)C)C(=O)CN(CCC(=O)O)C(=O)N2CCOCC2)cc1 [AX37] | 60.5 nM
Cc1ccccc1NC(=O)Nc1ccc(CC(=O)Nc2cccc(OCCCC(=O)O)c2)cc1 [RX23] | 144 nM
CC(C)CN(CC(=O)Nc1ccc(NC(=O)Nc2ccccc2)cc1)C(=O)CN(CCC(=O)O)C(=O)Cc1ccccc1 [AX24] | 300 nM
Cc1ccccc1NC(=O)Nc1ccc(CC(=O)Nc2cccc(OC/C=C/C(=O)O)c2)cc1 [RX21] | 285 nM
Cc1ccccc1NC(=O)Nc1ccc(CC(=O)Nc2ccccc2OCCC(=O)O)cc1 [UX1] | 4500 nM
Cc1ccccc1NC(=O)Nc1ccc(CC(=O)Nc2cccc(OCCC(C)C(=O)O)c2)cc1 (stereo not shown) [RX6] | 2590 nM
CC(C)CCN(CC(=O)Nc1ccccc1)C(=O)CN(CCC(=O)O)C(=O)c1ccccc1 [AX12] | 4120 nM
CN1C(=O)CN(CCC(=O)O)C(=O)c2cc(NC(=O)Cc3ccc(NC(=O)Nc4ccccc4Cl)cc3)ccc21 [BX34] | 723 nM
Cc1ccccc1NC(=O)Nc1ccc(CC(=O)Nc2cc(OCCCC(=O)O)ccc2C(C)C)cc1 [RX10] | 2040 nM

SMILES | IC50
Cc1ccccc1NC(=O)Nc1ccc(NC(=O)[C@@H]2CCCN2C(=O)CC(C)CCC(=O)O)cc1 (stereo partly shown) [CX11] | 144 nM
Cc1ccccc1NC(=O)Nc1ccc(CC(=O)NCc2cccc(OCCCC(=O)O)c2)cc1 [RX14] | 652 nM
Cc1ccccc1NC(=O)Nc1ccc(NC(=O)[C@@H]2CCCN2C(=O)CN(CCC(=O)O)C(=O)c2ccccc2)cc1 [AX35] | 85 nM
COc1ccc([C@H](CC(=O)O)NC(=O)C(CC(=O)Nc2ccc(NC(=O)Nc3ncccc3C)cc2)CC(C)C)cc1OC (stereo partly shown) [SX46] | 200 nM
Cc1ccccc1NC(=O)Nc1ccc(CC(=O)Nc2cc3c(cc2Cl)N(C)C(=O)CN(CCC(=O)O)C3=O)cc1 [BX37] | 643 nM
Cc1ccccc1NC(=O)Nc1ccc(CC(=O)Nc2cccc(NCCC(=O)O)c2)cc1 [RX15] | 650 nM
COc1ccc(CNC(=O)C2=C(C(=O)N[C@@H](CC(=O)O)c3ccc(OC)cc3)CCC2)cc1 [MX2] | 250 nM
Cc1ccccc1NC(=O)Nc1ccc(CC(=O)Nc2ccc3c(c2)CN(CCC(=O)O)C(=O)CN3CCN2CCOCC2)cc1 [BX69] | 31.5 nM
COc1cccc(C(=O)N(CCC(=O)O)CC(=O)N(CCC(C)C)CC(=O)Nc2ccc(CC(=O)N3CCc4ccccc43)cc2)c1 [AX21] | 761 nM
Cc1ccccc1NC(=O)Nc1ccc(NC(=O)CN(CCC(C)C)C(=O)CCCCC(=O)O)cc1 [CX13] | 52.5 nM
CSCCCN(CC(=O)Nc1ccccc1)C(=O)CN(CCC(=O)O)C(=O)c1ccccc1 [AX6] | 13500 nM
Cc1ccccc1NC(=O)Nc1ccc(CC(=O)Nc2ccc3c(c2)C(=O)N(CCC(=O)O)CC(=O)N3Cc2ccc(F)cc2)cc1 [BX48] | 166 nM
CN1C(=O)CN(CCC(=O)O)C(=O)c2cc(NC(=O)Cc3ccc(NC(=O)Nc4ccccc4)cc3)ccc21 [BX32] | 959 nM
Cc1c(C(=O)Nc2ccc3c(c2)C(=O)N(CCC(=O)O)CC(=O)N3C)c(=O)n(-c2ccccc2)n1C [BX6] | 15400 nM
COc1ccc(C(CC(=O)O)NC(=O)C(CC(=O)Nc2ccc(NC(=O)Nc3ccccc3C)cc2)NS(C)(=O)=O)cc1OC (stereo not shown) [SX47] | 196 nM
Cc1ccccc1NC(=O)Nc1ccc(CC(=O)Nc2ccc3c(c2)C(=O)N(CCC(=O)O)CC(=O)N3C2CCCCC2)cc1 [BX40] | 438 nM
COc1cccc(C(=O)N(CCC(=O)O)CC(=O)N(CCC(C)C)CC(=O)Nc2ccccc2)c1 [AX18] | 1400 nM
COc1ccc([C@H](CC(=O)O)NC(=O)C(N)CC(=O)Nc2ccc(NC(=O)Nc3ccccc3C)cc2)cc1OC (stereo partly shown) [SX19] | 1940 nM
